Test results published in article PMC9606187, “Dual HDAC/BRD4 Inhibitors Relieves Neuropathic Pain by Attenuating Inflammatory Response in Microglia After Spared Nerve Injury” (Neurotherapeutics, 2022).

How the values were obtained:
[1] = test system: model of neuropathic pain; design: method as in PMID 33529752; conditions: cited from earlier work
[2] = target: T1, Recombinant Human Bromodomain containing protein 4, bromodomain 1 (BRD4-BD1) (Homo sapiens, UniProt O60885); assay: AlphaScreen bromodomain binding assay (Reaction Biology), BRD4-1; conditions: ligand Histone H4 peptide (1–21) K5/8/12/16Ac-Biotin; in comparison with (+)-JQ1; read-out: IC50 on BRD4-BD1
T1 construct: bromodomain 1 (aa 44–170); purchased Reaction Biology (RBC) RD-11–140; host or cells: E. coli
Protocol: (§1) The reader assay is a binding assay using AlphaScreen technology […] assay and was performed by Reaction Biology (www.reactionbiology.com). The biotinylated peptide binding to the reader domain of His-tagged protein is monitored by the singlet oxygen transfer from the Streptavidin-coated donor beads to the AlphaScreen Ni-chelate acceptor beads.
(§2) Reaction buffer: 50 mM Hepes, pH7.5, 100 mM NaCl, 0.05% CHAPS, 0.1% BSA, and 1% DMSO (the final DMSO concentration may differ depending on compound stock and test concentrations).
(§3) Bromodomain: BRD4-1: RBC Cat# RD-11–140: Recombinant Human Bromodomain containing protein 4, bromodomain 1 (aa 44–170; Genbank Accession # NM_058243), expressed in E. coli with N-terminal His-tag. MW = 17.8 kDa; BRD4-2: RBC Cat# RD-11–141: Recombinant Human Bromodomain containing protein 4, bromodomain 2 (aa 349–460;Genbank Accession # NM_058243), expressed in E. coli with N-terminal His-tag. MW = 15.7 kDa. Ligand (C-term-Biotin): Histone H4 peptide (1–21) K5/8/12/16Ac-Biotin. Detection beads: PerkinElmer: Donor beads: Streptavidin-coated donor beads; Acceptor beads: AlphaScreen Ni acceptor beads.
Reaction procedure: • Deliver 2.5X BRD in wells of reaction plate except No BRD control wells. Add buffer instead. • Deliver compounds in 100% DMSO into the BRD mixture by Acoustic technology (Echo550; nanoliter range). […]

[3] = target: T2, Recombinant Human Bromodomain containing protein 4, bromodomain 2 (BRD4-BD2) (Homo sapiens, UniProt O60885); assay: AlphaScreen bromodomain binding assay (Reaction Biology), BRD4-2
T2 construct: purchased Reaction Biology (RBC) RD-11–141; host or cells: E. coli
Protocol: as §1, §2, §3
Reaction procedure: • Deliver 2.5X BRD in wells of reaction plate except No BRD control wells. Add buffer instead. • Deliver compounds in 100% DMSO into the BRD mixture by Acoustic technology (Echo550; nanoliter range). Spin down and pre-incubation for 30 min. • Deliver 5X Ligand. Spin and shake. • Incubate for 30 min at room temperature with gentle shaking. • Deliver 5X donor beads. Spin and shake. • Deliver 5X acceptor beads. Spin and shake. Then gentle shaking in the dark for 60 min. • Alpha measurement (Ex/Em = 680/520–620 nm) in Enspire.

HDAC1 = target: T3, HDAC1 (Homo sapiens, UniProt Q13547); assay: HDAC1 immunoprecipitation & activity assay on treated HCT-116 cells; assay type: cell-based; conditions: HCT-116 cells treated at 10 µM for 12 h; in comparison with SAHA
T3 construct: endogenous in cells; host or cells: HCT-116
T3 sequence (Q13547 whole entry): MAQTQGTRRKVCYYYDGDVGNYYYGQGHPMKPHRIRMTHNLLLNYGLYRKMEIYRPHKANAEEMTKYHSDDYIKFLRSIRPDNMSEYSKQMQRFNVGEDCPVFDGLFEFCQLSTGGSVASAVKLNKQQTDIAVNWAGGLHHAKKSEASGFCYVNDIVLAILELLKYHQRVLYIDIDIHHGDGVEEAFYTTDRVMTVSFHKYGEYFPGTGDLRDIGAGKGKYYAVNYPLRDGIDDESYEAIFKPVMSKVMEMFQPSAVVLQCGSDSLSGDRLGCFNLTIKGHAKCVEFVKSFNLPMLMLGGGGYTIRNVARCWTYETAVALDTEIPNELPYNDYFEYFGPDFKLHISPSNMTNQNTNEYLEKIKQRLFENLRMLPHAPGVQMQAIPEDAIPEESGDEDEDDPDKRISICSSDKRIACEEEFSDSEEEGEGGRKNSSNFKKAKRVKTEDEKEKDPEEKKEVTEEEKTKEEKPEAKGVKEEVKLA
Protocol: HDAC assay: To test the inhibition activity of compounds, the HDAC1 immunoprecipitation (IP) & Activity Assay Kit (Catalog # K342-25; Biovision) was used under the protocol provided by the kit. HCT-116 cell lines were plated in 6 wells and treated with the investigated compounds at 10 µM for 12 h. After incubation, the media was removed, and the cells were washed with PBS (EuroClone) solution (2X). Then, 200 µl/well of lysis buffer with protease inhibitor was added and the cells were scraped and incubated in ice for 30 min. After centrifugation at 10,000 g for 10 min at 4 °C, the supernatant was collected. One hundred micrograms of each extract was incubated with 6 µl of Rabbit HDAC1 antibody and Rabbit IgG and the volume was reached to 500 µl with PBS with protease inhibitors. After incubation at 4 °C overnight a rotary mixer, 25 µl of the protein-A/G bead slurry, previously washed with PBS (2X), was added to the samples and incubated for 1 h at 4 °C. The beads were recovered after 3 washes with 1 ml PBS, by centrifuging at 14,000 g for ~ 10 s and used for HDAC assay.
HDAC assay preparation: For each reaction, 168 µl reaction mix containing HDAC assay buffer and HDAC substrate was prepared, added to the sample and to background control tube, and incubated at 37 °C for 2 h. SAHA was used as a positive control. […] The fluorescence was read at Ex/Em = 380/500 nm with Tecan M1000 plate reader.

naïve mice = assay: Hot plate test, acute thermal pain in naïve mice; assay type: in vivo; conditions: 5 to 500 µM i.n.
Source text: Mice were randomly assigned to each treatment group. To evaluate the pharmacological profile of SUM35 (N-hydroxy-6-(1-methyl-6-phenyl-4H-benzo[f][1,2,4]triazolo[4,3-a][1,4]diazepin-8-yl)hex-5-ynamide), SUM52 ((S)-N-hydroxy-7-(2-(1-methyl-6-phenyl-4H-benzo[f][1,2,4]triazolo[4,3-a][1,4]diazepin-4-yl)acetamido)heptanamide) (Fig. 1F), synthesized in the laboratory of Prof. Maria Novella Romanelli, iBET762 (molibresib; (4S)-6-(4-Chlorophenyl)-N-ethyl-8-methoxy-1-methyl-4H-[1,2,4]triazolo[4,3,a][1,4] benzodiazepine-4-acetamide, and SAHA (vorinostat; suberoylanilide hydroxamic acid) (Sigma-Aldrich, Italy) were administered 15 min before the tests. Drugs were dissolved in 5% DMSO. Drug concentrations were prepared in such a way that the necessary dose could be administered in a volume of 10 µl per mouse by intranasal (i.n.) administration. The experimental protocol to test the effect of treatments on behavioral and in vitro tests included 3 control groups: untreated, vehicle (5% DMSO), and saline. A representative figure of the experimental protocol in naïve (C) and SNI (F) mice has been inserted in Supplementary Fig. 1.
For i.n. administration, mice were slightly anesthetized by 2% isoflurane inhalation and placed in a supine position. A 5 μl aliquot of solution (treatments or vehicle) was slowly dropped alternatively to each nostril with a micropipette tip.
Animals were habituated to the testing environment daily for at least 2 days before baseline testing. To evaluate onset and progression of pain hypersensitivity, neuropathic mice were monitored by measuring nociceptive responses every 30 min for 3 h before surgery or 3, 7, 10, and 14 days after nerve surgery. Experiments were performed on post-surgery day 7 and 14 when the pain hypersensitivity was well established. Each mouse served as its own control, the responses being measured both before and after surgery. All testing was performed with a blind procedure.

SNI mice [4] = assay: Hargreaves' plantar test, thermal allodynia in SNI mice; assay type: in vivo
Protocol: (§4) For i.n. administration, mice were slightly anesthetized by 2% isoflurane inhalation and placed in a supine position [30]. A 5 μl aliquot of solution (treatments or vehicle) was slowly dropped alternatively to each nostril with a micropipette tip.
Behavioral testing was performed before surgery to establish a baseline for comparison with post-surgical values.
Thermal nociceptive threshold was measured using Hargreaves’ device, as described [33]. Nociceptive response for thermal sensitivity was expressed as thermal paw withdrawal latency in seconds. All determinations were averaged for each animal.

SNI mice [5] = assay: Mechanical allodynia (Dynamic Plantar Aesthesiometer) in SNI mice; assay type: in vivo
Protocol: Mice were randomly assigned to each treatment group. […] Maria Novella Romanelli, iBET762 (molibresib; (4S)-6-(4-Chlorophenyl)-N-ethyl-8-methoxy-1-methyl-4H-[1,2,4]triazolo[4,3,a][1,4] benzodiazepine-4-acetamide, and SAHA (vorinostat; suberoylanilide hydroxamic acid) (Sigma-Aldrich, Italy) were administered 15 min before the tests. Drugs were dissolved in 5% DMSO. Drug concentrations were prepared in such a way that the necessary dose could be administered in a volume of 10 µl per mouse by intranasal (i.n.) administration. The experimental protocol to test the effect of treatments on behavioral and in vitro tests included 3 control groups: untreated, vehicle (5% DMSO), and saline.
as §4
Behavioral testing was performed before surgery to establish a baseline for comparison with post-surgical values. Mono-neuropathy was induced by spared nerve injury and this model of pain in mice has been in use for several years [31]. The SNI procedure was performed as previously described [31].
Mechanical allodynia was measured by using Dynamic Plantar Aesthesiometer (Ugo Basile, Bologna, Italy), as described [32]. Nociceptive response for mechanical sensitivity was expressed as mechanical paw withdrawal threshold (PWT) in grams. PWT was quantified by an observer blinded to the treatment.

[6] = time-course comparison, combination i-BET762 10 µg, SAHA 3 µg

SMILES	time of peak of analgesic activity after administration [1] [min]	IC50 [2] [nM]	preference between BRD4-BD1 and BRD4-BD2 domains ([3]; BRD4-BD1 vs BRD4-BD2)	IC50 ([3]; ligand Histone H4 peptide (1–21) K5/8/12/16Ac-Biotin, in comparison with (+)-JQ1, read-out: IC50 on BRD4-BD2) [nM]	inhibition of HDAC1 enzymatic activity (HDAC1)	thermal antinociceptive effect (hot plate), whole dose range (naïve mice)	thermal antiallodynic activity, ipsilateral side (SNI mice [4]; 100 µM i.n.)	thermal antiallodynic activity, ipsilateral side (SNI mice [4]; 200 µM i.n.)	thermal antiallodynic efficacy compared with SAHA + iBET762 combination (SNI mice [4]; [6])	mechanical antiallodynic activity, ipsilateral side (SNI mice [5]; 100 µM i.n.)	mechanical antiallodynic activity, ipsilateral side (SNI mice [5]; 200 µM i.n.)	mechanical antiallodynic efficacy compared with SAHA + iBET762 combination (SNI mice [5]; [6])
CCNC(=O)C[C@@H]1N=C(c2ccc(Cl)cc2)c2cc(OC)ccc2-n2c(C)nnc21 [iBET762, (4S)-6-(4-Chlorophenyl)-N-ethyl-8-methoxy-1-methyl-4H-[1,2,4]triazolo[4,3,a][1,4] benzodiazepine-4-acetamide]	90											
Cc1nnc2n1-c1ccc(C#CCCCC(=O)NO)cc1C(c1ccccc1)=NC2 [SUM35, N-hydroxy-6-(1-methyl-6-phenyl-4H-benzo[f][1,2,4]triazolo[4,3-a][1,4]diazepin-8-yl)hex-5-ynamide]		1720	preferential interaction for BRD4-BD2	118	Partial inhibition	did not produce any significant increase of the thermal pain threshold	reaching the statistical significance	did not produce any significant increase of pain threshold	lower antiallodynic activity	reaching the statistical significance	did not produce any significant increase of pain threshold	lower antiallodynic activity
O=C(CCCCCCC(=O)Nc1ccccc1)NO [SAHA, suberoylanilide hydroxamic acid]	60											
